Measurements: patent US20240309014A1, “MACROCYCLIC COMPOUNDS AND USES THEREOF” (President and Fellows of Harvard College, priority 2017, published 2024)

Tests used:
[1] = system: Tenascin-C and EDA-fibronectin; assay: Effects on Tenascin-C and EDA-fibronectin in the FaDu subcutaneous model (FIG. 15); type: in vivo, nude mice; settings: Compound (1) 180 μg/kg + cetuximab 10 mg/kg on Day 1, tumors five days after, vs control tumors
Method: A human squamous cell carcinoma of the head and neck (SCCHN) cell line FaDu, which had been cultured in an RPMI-1640 medium containing 10% FBS, and penicillin-streptomycin (culture medium), was adjusted to a concentration of 5×10^7 cells/mL with culture medium to prepare a cell suspension. The cell suspension was inoculated in a volume of 100 μL into a subcutaneous part of a right flank of nude mice, 6 weeks of ages (CAnN.Cg-Foxnlnu/CrlCrlj, female, Charles River Laboratories Japan, Inc.). Ten days after cell inoculation, the mice were grouped such that averages of the tumor volumes were substantially equal among the groups. The experiment was conducted on groups each consisting of 5 mice. Compound (1) was dissolved in DMSO and a solution was stored in the freezer before use. […] Five days after the single administration, tumor samples were collected and fixed with IHC Zinc Fixative (BD Pharmingen) at 4° C. for 24 hr. Paraffin-embedded tissues were sectioned (3 μm), mounted on positively charged slides, and air-dried. Sections were deparaffinized, conditioned and the antigens were retrieved using microwave with 1 mM EDTA at pH 6.0 for Tenascin-C. For EDA-fibronectin, the antigens retrieval procedure was not necessary. […]

[2] = system: FaDu subcutaneous xenograft; assay: FaDu subcutaneous xenograft in combination with cetuximab, single dose (FIG. 16); type: in vivo, athymic mice; settings: single dose Day 1
Method: A human squamous cell carcinoma of the head and neck (SCCHN) cell line FaDu, which had been cultured in an RPMI-1640 medium containing 10% FBS, and penicillin-streptomycin, was adjusted to a concentration of 5×10^7 cells/mL with Hanks' Balanced Salt Solution to prepare a cell suspension. The cell suspension was inoculated in a volume of 100 μL into a subcutaneous part of a right flank of athymic mice (CAnN.Cg-Foxnlnu/CrlCrlj, female, 7 weeks old, Charles River Japan Inc.). Ten days after cell inoculation (Day 1), the length and the width of a tumor in each mouse were measured by using an electronic digital caliper (Mitutoyo Corporation), so as to calculate the volume of the tumor in accordance with the following calculation formula: […]
On the basis of TV, the mice were randomly grouped (Day 1). Each group was consisted in six mice. Compound (1) was dissolved in DMSO and a solution was stored in the freezer before use.

[3] = system: human endometrial cancer cell line HEC-108 xenograft; assay: HEC-108 endometrial cancer xenograft as monotherapy (FIG. 18); type: in vivo, athymic mice; settings: 180 μg/kg i.v. Day 1 and Day 8
Method: A human endometrial cancer cell line HEC-108, which had been cultured in an E-MEM containing 15% FBS and antibiotics were adjusted to a concentration of 7.14×10^7 cells/mL with medium to prepare a cell suspension. The cell suspension was inoculated in a volume of 150 μL into a subcutaneous part of a right flank of athymic mice (CAnN.Cg-Foxnlnu/CrlCrlj, female, 6 weeks old, Charles River Japan Inc.). Thirteen days after cell inoculation (Day 1), the length and the width of a tumor in each mouse were measured by using an electronic digital caliper (Mitutoyo Corporation), so as to calculate the volume of the tumor in accordance with the following calculation formula: […]
On the basis of TV, the mice were randomly grouped (Day 1). Each group was consisted in six mice. Compound (1) was dissolved in DMSO and a solution was stored in the freezer before use. Compound (1) (180 μg/kg) was diluted in saline and intravenously injected on Day 1 and Day 8.

[4] = system: human duodenal cell line HuTu 80 xenograft; assay: HuTu 80 xenograft model as monotherapy (FIG. 23); type: in vivo, nude mice
Method: A human duodenal cell line HuTu 80, which had been cultured in a EMEM containing 10% FBS, and penicillin-streptomycin, was adjusted to a concentration of 3×10^7 cells/mL in PBS to prepare a cell suspension. The cell suspension was inoculated in a volume of 100 μL into a subcutaneous part of a right flank of nude mice, 7 weeks of ages (CAnN.Cg-Foxnlnu/CrlCrlj, female, Charles River Laboratories Japan Inc.). Seven days after cell inoculation (Day 1), the shortest diameter and the longest diameter of a tumor in each mouse were measured by using an electronic digital caliper (Digimatic™ caliper, Mitutoyo Corporation), so as to calculate the volume of the tumor in accordance with the following calculation formulae: […]
On the basis of the volumes of tumors obtained on Day 1, the mice were grouped such that averages of the tumor volumes were substantially equal among the groups. The experiment was conducted on groups each consisting of six mice. Compound (1) was dissolved in DMSO and a solution was stored in the freezer before use. Immediately before the administration, the stock solution was diluted with saline. The test compound in saline was intravenously once-weekly administered at 45, 90, or 180 μg/kg for 2 weeks (on Day 1 and Day 8).

B-16 melanoma cells = settings: among natural Halichondrin compounds; cited from earlier work
L-1210 Leukemia = settings: cited from earlier work

## C=C1C[C@@H]2CC[C@@]34C[C@H]5O[C@H]6[C@@H](O3)[C@H]3O[C@H](CC[C@@H]3O[C@H]6C5O4)CC(=O)O[C@@H]3[C@@H](C)[C@@H]4O[C@@H]5C[C@]6(C[C@@H]7O[C@]8(C[C@H](C)[C@@H]9O[C@H](CN)[C@H](O)C[C@@H]9O8)C[C@H](C)[C@@H]7O6)O[C@@H]5C[C@@H]4O[C@H]3C[C@H]3O[C@@H](CC[C@@H]1O2)C[C@@H](C)C3=C (stereo in doubt) [Compound (1)]
[1]
  expression levels of Tenascin-C and ED-A fibronectin: reduced
[2]; 20 μg/kg + cetuximab 10 mg/kg
  antitumor efficacy with CTX: tended to be stronger than that of CTX monotherapy
[2]; 180 μg/kg and 60 μg/kg + cetuximab 10 mg/kg
  antitumor efficacy with CTX: stronger than that of CTX monotherapy with tumor regression
[3]
  antitumor activity: tumor growth delay
[4]; 0.18 mg/kg i.v. Day 1 and Day 8
  Tumor Regression (%): 99%
[4]; 180 μg/kg i.v. Day 1 and Day 8
  antitumor effect: tumor regression
[4]; 45 and 90 μg/kg i.v. Day 1 and Day 8
  antitumor effect: tumor growth delay

## C=C1C[C@@H]2CC[C@@]34C[C@H]5O[C@H]6[C@@H](O3)[C@H]3O[C@H](CC[C@@H]3O[C@H]6[C@H]5O4)CC(=O)O[C@@H]3[C@@H](C)[C@@H]4O[C@@H]5C[C@]6(C[C@@H]7O[C@]8(C[C@H](C)[C@@H]9O[C@H]([C@@H](O)C[C@@H](O)CO)C[C@@H]9O8)C[C@H](C)[C@@H]7O6)O[C@@H]5C[C@@H]4O[C@H]3C[C@H]3O[C@@H](CC[C@@H]1O2)C[C@@H](C)C3=C [Halichondrin B, reference compound]
B-16 melanoma cells
  anti-tumor activities against B-16 melanoma cells in vitro: strongest anti-tumor activities
L-1210 Leukemia
  activity against L-1210 Leukemia in vivo: highly active
